In patent US10220053B2, “Methods and compositions for modulating cancer stem cells” (University of Canberra, priority 2013, dated 2019):
“Also recorded” adds a separate entry of the source.

How the values were obtained:
MDA-MB 231 cells [1] = experiment: FACS analysis of CD44high CD24low CSC subpopulation, Basal/metastatic model; format: cell-based, human; settings: NCD38 5 μM, FIGS. 7A and B
Procedure: (§1) Cells from each well/flask were harvested by means of trypsin treatment followed by two washes with PBS. Washed cells then re-suspended in an antibody cocktail consisting anti-CD44-APC, anti-CD24-PE antibodies (details in Table 5) and Hoechst 33258 dye (final dilution of 1:1000) (Invitrogen, Carlsbad, Calif.) in 1% FCS-PBS solution. Cells re-suspended in antibody cocktail were incubated for 20 minutes at 4° C. Cells were next washed twice with PBS and re-suspended in 1% FCS-PBS solution (volume based on cell number) and kept on ice until analyzed by FACS. Forward scatter (FSC) and side scatter parameters were selected with FITC fluorochrome excited by 488 nm argonion laser, PE fluorochrome excited by 488 nm and Hoechst fluorochrome excited by 350 nm helium-cadmium UV laser.
(§2) Flow Cytometry data was produced using either BD FACS LSR Flow Cytometer (Becton Dickinson Biosciences) or BD FACS Aria™ II Flow Cytometer (Becton Dickinson Biosciences) and analyzed using the data acquisition software CellQuest Pro (Becton Dickinson Biosciences) and FlowJo (Tree Star Inc., Ashland, Oreg.) software at the MCRF facility, JCSMR, ANU, Canberra, Australia. Single colour controls were used to set compensation parameters. Isotype controls were used for all corresponding primary antibodies in each experiment. […]

MCF-7 cells [2] = experiment: FACS analysis of CD44high CD24low CSC-like subpopulation, MCF-IM model (PMA-stimulated MCF-7); format: cell-based, human; settings: NCD38 5 μM for 17 hr prior to PMA 0.65 ng/μl for 60 hours, FIGS. 6A and B
Procedure: MCF-7 cells were seeded one day before stimulation at a set density according to the experimental demand. Potential inducers of EMT were tested including Phorbol 12-Myristate 13-acetate (PMA) (Sigma-Aldrich, St. Louis, Mo.), and TGF β (R&D systems, Minneapolis, Minn.) at various concentrations and incubation length as specified in Table 6.
as §1, with “Forward scatter (FSC) and side scatter parameters were selected with FITC fluorochrome excited by 488 nm argonion laser, PE fluorochrome excited by 488 nm and Hoechst fluorochrome excited by 350 nm helium-cadmium UV laser.” left out
as §2, with “Australia.” for “Australia. Single colour controls were used to set compensation parameters. Isotype controls were used for all corresponding primary antibodies in each experiment.”

MCF-7 cells [3] = experiment: Mammosphere assay; format: cell-based, human; settings: MCF-IM model, NCD38 5 μM for 17 hr prior to PMA 0.65 ng/ml for 6 days, mammospheres larger than 60 μm counted
Procedure: The following mammosphere culture media components were purchased from StemCell Technologies Inc., BC, Canada: Mammocult Basal medium (Human) (catalogue number-05621), Mammocult Proliferation Supplements (Human) (catalogue number-05622), heparin (catalogue number-07904) and hydrocortisone (catalogue number-[…]). Hydrocortisone powder was freshly dissolved into mammocult basal medium to get 10^−4M solution on the day of experiment. 50 mL of Mammocult complete media was then prepared by addition of 45 mL Mammocult basal medium, 5 mL mammocult proliferation supplements, 100 μL of the 0.2% heparin stock, 500 μL of 10^−4M stock of hydrocortisone and 50 μL of the PNS. Mammocult complete media was either used on same day or stored for not more than 7 days at 4° C.
MCF-7 cells were grown in a 175 cm^2 cell culture flask and harvested using a cell scraper (Zellschaber, Switzerland) or FACS sorted as specified below. Importantly trypsin treatment was never used for harvesting cells as it interferes with the mammosphere assay. Harvested cells were then re-suspended in 1 mL mammocult complete media and centrifuged at 500×g for 3 minutes at 20° C. The cell pellet was then re-suspended in 1 mL mammocult complete media before counting the cells on the Vi-CELL counter. […] Mammospheres larger than 60 μm were counted per well on day 7 and pictures were taken with an Olympus microscope. […]

MDA-MB 231 cells [4] = experiment: Phase contrast microscopy of EMT/MET, Basal/metastatic model; format: cell-based, human; settings: NCD38 5 μM, FIG. 7C
Procedure: Phase contrast microscopy was utilized for EMT and wound healing assays under 10× or 20× magnification of Olympus Fluorescence 1×71 microscope. Images were captured and analyzed as described above except that wound healing assay pictures were also analyzed by Image J software (Free software in Public domain developed by NIH).

MDA-MB-231 cells [5] = experiment: In vivo murine xenograft model, tumor size; set-up: species or system BALB/c female nude mice
Procedure: (§3) To monitor the effect of LSD1 inhibitors in vivo on tumor recurrence, in vivo murine xenograft model of breast cancer recurrence was used. The MDA-MB 231 cell line model, which is one of the most robust and well-established models was used in 6 weeks old BALB/c female nude mice. 5×10^6 MDA MB 231 cells were injected in the mammary fat pad of each mouse. […] Once the tumors reach 50 mm^3 volume size (determined by caliper measurement), treatments were initiated. Mice were monitored until tumors reach 500 mm^3 and sacrificed for collection of tumors. Each treatment group consisted 14 mice each (5 mice for tumor growth curve+3 mice each for tumor collection at 3 time points-treatment start day-week 0, chemotherapy tumor reduction-approx. week 4 and until tumor reach 500 mm^3 approx. week 7). Tumor volumes were measured every week and three mice from each group were sacrificed for IHC, FACS, and RNA extraction at above mentioned three time points.
5. Mice were then injected with 50 μL of the Matrigel™+5×10^6 cell suspension in PBS using 26″ needles and isoflurane as an anesthetic. Each 50 μL of the mixture contains 2×10^6 MDA-MB-231 cells.
7. Measurements for tumor volume began at day 7 post injection of MDA-MB-231. Then the tumor volumes were measured daily till 15 May 2014.
Treatment of mice started at day 16 post injection of MDA-MB-231, where tumors roughly reached a volume of 50 mm^3.
Group B: 4 mg/kg of docetaxel (11 mice)
Group C: 100 mg/kg of pargyline (11 mice)
Group D: 4 mg/kg of docetaxel+100 mg/kg of pargyline (11 mice)

MDA-MB-231 cells [6] = experiment: In vivo murine xenograft model, CSC subpopulation of tumors (FACS, CD44 mRNA); set-up: species or system BALB/c female nude mice; settings: pargyline along with docetaxel
Procedure: as §3
At week 7 post treatment, the remaining tumor samples were collected for flow cytometry with CD44, CD24 and Hoechst staining. Remaining sample was used for RNA extraction.
1. Tumors were collected in 5 mL of DMEM supplemented with 2.5% FCS in 15 mL tubes.
8. A total number of 2×10^5 cells were stained for CD44-APC, CD24-PE and Hoechst. […]

O=C(N[C@@H](CCCCN[C@@H]1C[C@H]1c1ccccc1)C(=O)NCc1cccc(Cl)c1)c1ccc(-c2ccccc2)cc1.O=C(O)C(F)(F)F [NCD38]
CSC formation (CD44high CD24low CSC-like subpopulation) by FACS (MDA-MB 231 cells [1]): inhibits CD44 high CD24 low-CSC-like subpopulation | CSC formation (CD44high CD24low CSC-like subpopulation) by FACS (MDA-MB 231 cells [1]; listed as NCD-38): decrease of CSC formation | CSC formation (CD44high CD24low CSC-like subpopulation) monitored by FACS (MCF-7 cells [2]): inhibits CD44 high CD24 low-CSC-like subpopulation | CSC formation (CD44high CD24low CSC-like subpopulation) monitored by FACS (MCF-7 cells [2]; listed as NCD-38): inhibition CSC formation | CSC formation monitored by mammosphere assay (MCF-7 cells [3]): reduce mammosphere formation | CSC formation monitored by mammosphere assay (MCF-7 cells [3]; listed as NCD-38): inhibition CSC formation | mesenchymal to epithelial transition / EMT (phase contrast microscopy) (MDA-MB 231 cells [4]): inhibit EMT | mesenchymal to epithelial transition / EMT (phase contrast microscopy) (MDA-MB 231 cells [4]; listed as NCD-38): conversion of mesenchymal cells in to epithelial cells

C#CCN(C)Cc1ccccc1 [pargyline]
tumor size (MDA-MB-231 cells [5]; pargyline 100 mg/kg in combination with docetaxel 4 mg/kg, mice xenograft, FIG. 8 (week four), FIG. 9): reduced tumor size; also recorded: reduces size of tumor | tumor volume (MDA-MB-231 cells [5]; pargyline in combination with docetaxel, after seven weeks of treatment initiation, FIG. 9B): reduces volume and weight of tumor | tumor weight (MDA-MB-231 cells [5]; pargyline in combination with docetaxel, after seven weeks of treatment, FIG. 9A): reduces volume and weight of tumor | CSC subpopulation measured by transcript (CD44 mRNA expression of dissected tumors) (MDA-MB-231 cells [6]; real-time PCR, FIG. 10B): reduced CSC subpopulation | CSC subpopulation of tumors measured by FACS (MDA-MB-231 cells [6]; seven weeks of treatment, FIG. 10A): reduced CSC subpopulation; also recorded: reduces cancer stem cells
